Structures can show the parent of a compound that is named as a salt.

This experiment relates to SW 480. In words: Growth inhibition test (MTT) for cytotoxic properties. In kind it is cell-based, human. To be noted: Table 1a, glycoconjugates of batracyline. The procedure:
Growth Inhibition Test for Determination of the Cytotoxic Properties of Glycoconjugates of Batracyline and of Quinolone-a
The human colon cell lines SW 480 and HT 29 (ATCC no. CCL 228 and HBT-38) and the mouse melanoma cell line B 16 F 10 were cultured in Roux dishes in RPMI 1640 medium with addition of 10% FCS. The cultures were then trypsinized and taken up in RPMI plus 10% FCS to a cell count of 50,000 cells/ml. 100 μl of cell suspension/well were introduced into a 96 microwell plate and incubated for 1 day at 37° C. in a CO2 incubating cabinet. A further 100 μl of RPMI medium and 1 μl of dimethyl sulphoxide with the test substances were then added. The growth was checked after day 3 and day 6. 40 μl of MTT solution (3-(4,5-dimethylthiazol-2-yl)-2,5-diphenyltetrazoline bromide) with an initial concentration of 5 mg/ml of H2 O were added to each microwave. The plate was incubated for 5 hours in a CO2 incubating cabinet at 37° C. The medium was then sucked off and 100 μl of i-propanol/well were added. After shaking for 30 minutes with 100 μl of H2 O, the extinction was measured at 540 nm with a Titertek Multiskan MCC/340 (Flow).
The cytotoxic action of the glycoconjugates of batracyline described is shown in Table 1a as the IC50 value in each case for the SW 480 and HT 29 cell lines.

Consider `C[C@@H]1O[C@H](Oc2ccc(NC(=S)NCCCC[C@H](N)C(=O)N[C@H](C)C(=O)Nc3ccc4c(c3)CN3C(=O)c5ccccc5C3=N4)cc2)[C@@H](O)C[C@@H]1O` [Example 3.7, N-{N^ε -[O-(3-Deoxy-β-L-fucosyl)-4-hydroxy-phenylamino-thiocarbonyl]-lysyl-D -alanyl}-batracyline, trifluoroacetate], for which 55 µM corresponded to half-maximal inhibition (IC50).
Under `CO[C@H]1[C@@H](O)[C@H](O)[C@@H](Oc2ccc(NC(=S)NCCCC[C@H](N)C(=O)N[C@H](C)C(=O)Nc3ccc4c(c3)Cn3c-4nc4ccccc4c3=O)cc2)O[C@H]1C` [Example 3.11, N-{N^ε -[O-(4-O-Methyl-β-L-fucosyl)-4-hydroxy-phenylamino-thiocarbonyl]-lysyl-D-alanyl}-batracyline, acetate] stands 85 µM; under `CNC(=O)COC1C(O)C(CO)OC(Oc2ccc(NC(=S)NCCCCC(N)C(=O)NC(C)C(=O)Nc3ccc4nc5n(c(=O)c4c3)Cc3ccccc3-5)cc2)C1O` [Example 3.20, N-{N^ε -[O-(3-O-(N-Methyl-carbamoylmethyl)-β-D-galactopyranosyl)-4-hydroxy-phenylamino-thiocarbonyl]-lysyl-D-alanyl}-batracyline, trifluoroacetate], 100 µM.
Molecule `CC(=O)OCC1OC(Oc2ccc(NC(=S)NCCCCC(N)C(=O)NC(C)C(=O)Nc3ccc4nc5n(c(=O)c4c3)Cc3ccccc3-5)cc2)C(O)C(O)C1O` [Example 3.24, N-{N^ε -[O-(6-O-Acetyl-β-D-galactopyranosyl)-4-hydroxy-phenylamino-thiocarbonyl]-lysyl-D-alanyl}-batracyline, trifluoroacetate] showed an IC50 of 95 µM.
Under `COC1C(Oc2ccc(NC(=S)NCCCCC(N)C(=O)NC(C)C(=O)Nc3ccc4nc5n(c(=O)c4c3)Cc3ccccc3-5)cc2)OC(CO)C(O)C1OC` [Example 3.27, N-{N^ε -[O-(2,3-Di-O-methyl-α-D-mannopyranosyl)-4-hydroxy-phenylamino-thiocarbonyl]-lysyl-D-alanyl}-batracyline, trifluoroacetate] stands 110 µM; under `CC(NC(=O)C(CCCCNC(=S)Nc1ccc(OC2OC(CO)C(O)C(OCC(N)=O)C2O)cc1)NC(=S)Nc1ccc(OC2OC(CO)C(O)C(OCC(N)=O)C2O)cc1)C(=O)Nc1ccc2nc3n(c(=O)c2c1)Cc1ccccc1-3` [Example 6.82, N-{N^α,N^ε -Bis-[O-(3-O-carbamoylmethyl-β-D-galactopyranosyl)-4-hydroxy-phenylamino-thiocarbonyl]-lysyl-D-alanyl}-batracyline], 125 µM; under `CO[C@H]1[C@H](O)[C@@H](Oc2ccc(Nc3nc(NCCO)nc(NCCCC[C@H](N)C(=O)N[C@H](C)C(=O)Nc4ccc5c(=O)n6c(nc5c4)-c4ccccc4C6)n3)cc2)O[C@@H](C)[C@H]1O` [Example 8.10, N-{N^ε -[4-Hydroxyethylamino-2-[O-(3-O-methyl-β-L-fucosyl)-4-hydroxy-phenylamino]-triazin-6-yl]-lysyl-D-alanyl}-batracyline, trifluoroacetate], 70 µM.
Under `CO[C@H]1[C@@H](O)[C@H](O)[C@@H](Oc2ccc(Nc3nc(NCCO)nc(NCCCC[C@H](N)C(=O)N[C@@H](C)C(=O)Nc4ccc5c(c4)CN4C(=O)c6ccccc6C4=N5)n3)cc2)O[C@H]1C` [Example 8.12, N-{N^ε -[4-Hydroxyethylamino-2-[O-(4-O-methyl-β-L-fucosyl)-4-hydroxy-phenylamino]-triazin-6-yl]-lysyl-alanyl}-batracyline, trifluoroacetate] stands 30 µM; under “N-{N-[O-(β-L-Fucosyl)-4-hydroxy-phenylamino-thiocarbonyl]-glutamyl-D-a lanyl}-batracyline [Example 7.5]”, 80 µM.
Under “N-{N^α -[4-Hydroxyphenylamino-thiocarbonyl]-N^ε -[O-(4-O-methyl-β-L-fucosyl)-4-hydroxyphenylamino-thiocarbonyl]-lysyl -D-alanyl}-batracyline [Example 5.6]” stands above 250 µM.

The values are drawn from patent US6271342A, “Sugar-modified cytostatics” (Bayer Aktiengesellschaft, priority 1995, dated 2001).
